# Data published in US12138256B2, “Treatment of cardiopulmonary disorders” (Bayer Aktiengesellschaft, priority 2021, dated 2024).
# Read-outs that look alike come from different tables or passages of the source.
# Legend:
# [1] = Phase I, healthy male subjects, 7 days inhalation: plasma concentrations over time (C-4.1); assay type: in vivo, human; conditions: all doses administered
# Experimental: Healthy White male subjects, aged 18 to 45 years and with a body mass index (BMI) above/equal 18.5 and below/equal 29.9 kg/m2 were treated in a clinical pharmacological phase I study on seven days with inhaled once daily doses of 480 μg or 1000 μg or 2000 μg (2 capsules of 1000 μg) (nominal dose) of dry powder formulations of example 2 or Placebo. The subjects inhaled the drug powder from capsules (see under D-1, e.g. tables 22 and 23) inserted into a handheld inhalation device by one deep inhalative breath. The dry powder formulation of the drug is dispersed into the airstream and fine particles are transported into the deep parts of the lung where it is intended to cause a vasodilation of the blood vessels in PH patients for a substantial reduction of increased blood pressure in the central pulmonary blood vessels in PAH patients or other subtypes of PH. This effect cannot be shown in subjects with healthy lungs. In addition inhaled drug causes a dilation of the bronchial airways and thus also improves disease states of lung diseases in PH patients with pathological bronchoconstriction. This effect was measured via bodyplethysmography as reduction of Specific Airway Resistance in healthy subjects. […]
# [2] = system: plasma proteins; experiment: Protein binding via Transil assay, rat plasma; assay type: in vitro ADME; conditions: rat plasma
# Source text: (§1) The distribution of a test substance between Transil® (phosphatidylcholine lipid bilayers immobilized on silica beads) and plasma is a characteristic feature of any pharmaceutical compound and is dependent on its extent of binding to plasma proteins. By comparing the distribution between Transil® and buffer with the distribution between Transil® and plasma of any species of interest, the unbound fraction in the plasma of the respective animal species can be calculated in vitro. The respective plasma and buffer concentrations were determined via a radioactivity analysis. A detailed description of the method and its validation was published by Schuhmacher et al. (2).
# [3] = system: plasma proteins; experiment: Protein binding via Transil assay, human plasma; assay type: in vitro ADME; conditions: plasma
# Source text: as §1
# [4] = Protein binding, minipig plasma (fraction unbound); assay type: in vitro ADME
# Source text: as §1
# [5] = system: acetylcholine-induced bronchospasm; experiment: Bronchorelaxation in vivo: acetylcholine-induced bronchoconstriction in Brown Norway rats, RL and Cdyn (C-3.2); parameters: species or system rat; conditions: inhaled 60 minutes before provocation; tiotropium 1 μg/kg; comparative example 11 1, 10 and 100 μg/kg
# Experimental: The bronchoconstriction model (see Hoymann H G. Lung function measurements in rodents in safety pharmacology studies. Front Pharmacol 2012; 3:156) used Male Brown Norway rats (Charles River, Sulzfeld, Germany; 10-12 weeks old) randomized to three treatment groups (comparative example 11, 1 μg/kg, 10 μg/kg, and 100 μg/kg; n=12-13), one positive control group (tiotropium 1 μg/kg; n=12), and one vehicle control group (n=17). Animals were treated with the inhaled test compounds 60 minutes before provocation. Comparative example 11, vehicle, or tiotropium were aerosolized using a micro feeding system and a dispersion nozzle operated with pressurized air. The aerosol concentration was determined by filter sampling with gravimetrical analysis and monitored continuously by a photometer. The lung-deposited doses were assessed from the inhalation dose (Raabe O G, Al-Bayati M A, Teague S V, Rasolt A. Regional Deposition of Inhaled Monodisperse Coarse and Fine Aerosol Particles in Small Laboratory Animals. The Annals of Occupational Hygiene 1988; 32:53-63.). […] After reaching a steady state in respiration, lung function of the spontaneously breathing animal was recorded as baseline values for ≥2 minutes; amongst other parameters, lung resistance (=RL) and dynamic compliance (=Cdyn) were used to assess bronchoconstriction. […]
# [6] = system: Caco-2 cells; experiment: Caco-2 permeability test (C-5.1); assay type: in vitro ADME, human; conditions: 2 μM
Structure (SMILES),persistence of measurable plasma concentration after first inhalation [1] [h],"fraction unbound, times lower than comparative example 1 [2] [times]",ratio of fraction unbound minipig/human [3],"fraction unbound ([4]; Minipig (female) plasma, read-out: Fraction unbound)","fraction unbound ([4]; plasma (Transil beads), minipig plasma, read-out: plasma fu (fraction unbound))",bronchodilatory efficacy (RL) [5],efflux ratio [6]
"O=C(O)c1ccc(CCN(CCc2ccccc2OCc2ccc(-c3ccc(C(F)(F)F)cc3)cc2Cl)[C@H]2CCCc3nc(C(=O)O)ccc32)cc1 [example 2, (5S)-{[2-(4-Carboxyphenyl)ethyl][2-(2-{[3-chloro-4′-(trifluoromethyl)biphenyl-4-yl]methoxy}phenyl)-ethyl]amino}-5,6,7,8-tetrahydroquinoline-2-carboxylic acid]",48,–,–,–,–,–,–
"O=C(O)c1ccc(CCN(CCc2ccccc2OCc2ccc(-c3ccc(C(F)(F)F)cc3)cc2Cl)[C@H]2CCCc3nc(C(=O)O)ccc32)cc1 [comparative example 11, (5S)-5-{[2-(4-carboxyphenyl)ethyl][2-(2-{[3-chloro-4′-(trifluoromethyl)[biphenyl]-4-yl]methoxy}phenyl)ethyl]amino}-5,6,7,8-tetrahydroquinoline-2-carboxylic acid]",–,1.6,4.55,0.00348,0.00348,"dose-dependent significant (1, 10 and 100 μg/kg) bronchodilating effect",does not show an efflux ratio
